# Experimental data reported in patent US7968556B2, “Heteroaryl compounds, compositions thereof, and methods of treatment therewith” (Signal Pharmaceuticals, LLC, priority 2006, dated 2011).
# What was measured:
# mTOR = mTOR (Homo sapiens, UniProt P42345); experiment: mTOR HTR-FRET Assay; format: biochemical
# Procedure: The following is an example of an assay that can be used to determine the mTOR inhibitory activity of a test compound. Reagents are prepared as follows:
# “Simple TOR buffer” (used to dilute high glycerol TOR fraction): 10 mM Tris pH 7.4, 10 mM NaCl, 0.1% Tween-20, 1 mM DTT (from 1M stock frozen at −20° C. just prior to use). For convenience a large quantity of “Simple TOR buffer” w/o DTT can be stored at 4° C. It can be brought to room temperature and DTT added just prior to dilution of TOR fraction.
# 5XKB/5XMn/5×ATP solution (used to dilute substrate GST-p70S6kin 81 a.a. just prior to use) (40 ml screen quantity shown):
# Enzyme solution: Dilute TOR fraction 1:14 in “Simple TOR Buffer”. For current lot that is 640 μg/ml TOR fraction diluted 14× to yield 45.7 μg/ml TOR in buffer (i.e. 7.85 ml TOR pooled fraction+102.1 ml Simple TOR buffer=110 ml 14× diluted TOR fraction). Each Enzyme Lot must be QC'd prior to assay.
# Substrate solution: This may be prepared just prior to assay if preferred. Dilute 5.3 mg/ml GST-p70S6kinase fragment stock to 3.5 μg/ml (97 nM) working stock in 5XKB/5XMn/5×ATP solution (i.e. 26.41 μL (5.3 mg/ml) GST-p70S6+40 ml 5XKB/5XMn/5×ATP=40 ml 3.5 μg/ml (97 nM)).
# Assay Buffer (for dilution of Antibodies used in Antibody Detection Reagent):
# Antibody Detection Reagent (this reagent should be made just prior to addition to Assay Plates):
# Using PlateTrak program (Screen) or Matrix Pipettor (SAR), 19.5 μL of diluted TOR fraction is added to assay plate in all test, reference or positive control wells. 19.5 μL of “Simple TOR buffer” is added to all negative control wells. If treating multiple plates with the same compounds, can increase volume of enzyme to multiples of 19.5 μL in a tall 384 well polypropylene plate.
# Using EP3, 0.5 μl of test, reference or control DMSO is added to each well with mixing. Plates are incubated for 30 minutes at room temperature.
# Using PlateTrak program (Screen) or Matrix Pipettor (SAR) 5 μL of 5XKB/5XMn/5×ATP/5× substrate solution is added to each well of the assay plate to start the reaction. The solutions are mixed well and incubated for 2 hours at room temperature.
# Using PlateTrak program (Screen) or Matrix Pipettor (SAR) 5 μL of 60 mM EDTA is added to stop the reaction. The solutions are mixed well and allowed to sit for 15-20 minutes before the next step.
# Using PlateTrak program (Screen) or Matrix Pipettor (SAR) 10 μl of Antibody Detection Reagent is added. The solutions are mixes well and incubated for 5 hours to O/N to allow antibodies to form complexes with phosphorylated substrate.
# Plates are read on AnalystHT using protocol Multi-Method protocol.
IC50 (mTOR) [µM],melting point [°C],Compound
5.1 to 10,–,"COc1ccccc1-n1c(=O)[nH]c2c(C(N)=O)nc(-c3cncc(F)c3)nc21 [Compound 30, 2-(5-fluoropyridin-3-yl)-9-(2-methoxyphenyl)-8-oxo-8,9-dihydro-7H-purine-6-carboxamide]"
> 30,–,"NC(=O)c1nc(-c2cccc(O)c2)nc2c1[nH]c(=O)n2-c1ccc(C(F)(F)F)cc1 [Compound 22, 2-(3-hydroxyphenyl)-8-oxo-9-(4-(trifluoromethyl)phenyl)-8,9-dihydro-7H-purine-6-carboxamide]"
> 30,295 to 296,"COc1ccccc1-n1c(=O)[nH]c2c(C(N)=O)nc(-c3cccc([N+](=O)[O-])c3)nc21 [Compound 26, 9-(2-methoxyphenyl)-2-(3-nitrophenyl)-8-oxo-8,9-dihydro-7H-purine-6-carboxamide]"
> 30,> 375,"NC(=O)c1nc(-c2cccc(O)c2)nc2c1[nH]c(=O)n2-c1cccc(F)c1 [Compound 28, 9-(3-fluorophenyl)-2-(3-hydroxyphenyl)-8-oxo-8,9-dihydro-7H-purine-6-carboxamide]"
> 30,362 to 366,"NC(=O)c1nc(-c2cccc(O)c2)nc2c1[nH]c(=O)n2Cc1ccccc1 [Compound 23, 9-benzyl-2-(3-hydroxyphenyl)-8-oxo-8,9-dihydro-7H-purine-6-carboxamide]"
5.1 to 10,375 to 377,"NC(=O)c1nc(-c2cccc(O)c2)nc2c1[nH]c(=O)n2-c1ccc(Cl)cc1Cl [Compound 25, 9-(2,4-dichlorophenyl)-2-(3-hydroxyphenyl)-8-oxo-8,9-dihydro-7H-purine-6-carboxamide]"
> 30,244 to 246,"COc1ccccc1-n1c(=O)[nH]c2c(C(N)=O)nc(C3CCCC3)nc21 [Compound 19, 2-cyclopentyl-9-(2-methoxyphenyl)-8-oxo-8,9-dihydro-7H-purine-6-carboxamide]"
> 30,335 to 337,"COc1ccccc1-n1c(=O)[nH]c2c(C(N)=O)nc(-c3cccc4ncccc34)nc21 [Compound 18, 9-(2-methoxyphenyl)-8-oxo-2-(quinolin-5-yl)-8,9-dihydro-7H-purine-6-carboxamide]"
0.1 to 5,355 to 358,"NC(=O)c1nc(-c2cccc(O)c2)nc2c1[nH]c(=O)n2-c1c(F)cccc1F [Compound 16, 9-(2,6-difluorophenyl)-2-(3-hydroxyphenyl)-8-oxo-8,9-dihydro-7H-purine-6-carboxamide]"
10.1 to 20,257 to 259,"COc1ccccc1-n1cnc2c(C(N)=O)nc(-c3cccc(O)c3)nc21 [Compound 39, 2-(3-hydroxyphenyl)-9-(2-methoxyphenyl)-9H-purine-6-carboxamide]"
> 30,269 to 272,"COc1ccccc1-n1c(=O)[nH]c2c(C(N)=O)nc(-c3cccc(OC(F)(F)F)c3)nc21 [Compound 34, 9-(2-methoxphenyl)-8-oxo-2-(3-(trifluoromethoxy)phenyl)-8,9-dihydro-7H-purine-6-carboxamide]"
> 30,–,"COc1ccccc1-n1c(=O)[nH]c2c(C(N)=O)nc(C3CCN(Cc4ccccc4)CC3)nc21 [Compound 31, 2-(1-benzylpiperidin-4-yl)-9-(2-methoxyphenyl)-8-oxo-8,9-dihydro-7H-purine-6-carboxamide]"
> 30,237 to 240,"COc1ccccc1-n1c(=O)[nH]c2c(C(N)=O)nc(-c3ccccc3C(F)(F)F)nc21 [Compound 29, 9-(2-methoxyphenyl)-8-oxo-2-(2-(trifluoromethyl)phenyl)-8,9-dihydro-7H-purine-6-carboxamide]"
> 30,271 to 275,"COc1ccccc1-n1c(=O)[nH]c2c(C(N)=O)nc(-c3cccc(C(F)(F)F)c3)nc21 [Compound 20, 9-(2-methoxyphenyl)-8-oxo-2-(3-(trifluoromethyl)phenyl)-8,9-dihydro-7H-purine-6-carboxamide]"
5.1 to 10,–,"NC(=O)c1nc(-c2cccc(O)c2)nc2c1[nH]c(=O)n2-c1ccccc1OC(F)(F)F [Compound 24, 2-(3-hydroxyphenyl)-8-oxo-9-(2-(trifluoromethoxy)phenyl)-8,9-dihydro-7H-purine-6-carboxamide]"
0.1 to 5,–,"NC(=O)c1nc(-c2cccnc2)nc2c1[nH]c(=O)n2C1CCCCCC1 [Compound 17, 9-cycloheptyl-8-oxo-2-(pyridin-3-yl)-8-9-dihydro-7H-purine-6-carboxamide]"
10.1 to 20,–,"COc1ccc(-c2nc(C(N)=O)c3[nH]c(=O)n(-c4ccccc4OC)c3n2)cn1 [Compound 21, 9-(2-methoxyphenyl)-2-(6-methoxypyridin-3-yl)-8-oxo-8,9-dihydro-7H-purine-6-carboxamide]"
